Data as given in ChEMBL document CHEMBL1201862, “PubChem BioAssay data set” (2004).
Activity calls are given as the source filed them.

Tests used:
[1] = HEp-2 cell cytotoxicity, dose response, cytotoxicity control for RSV inhibitor project, HTS (AID 2410); format: functional; details: human respiratory syncytial virus
Large T antigen = Large T antigen (Simian virus 40, UniProt P03070); format: functional, Betapolyomavirus macacae;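 further: Confirmatory-stage PubChem screen for compounds that inhibit SV40 T antigen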
Chain of Large T antigen (P03070 whole entry): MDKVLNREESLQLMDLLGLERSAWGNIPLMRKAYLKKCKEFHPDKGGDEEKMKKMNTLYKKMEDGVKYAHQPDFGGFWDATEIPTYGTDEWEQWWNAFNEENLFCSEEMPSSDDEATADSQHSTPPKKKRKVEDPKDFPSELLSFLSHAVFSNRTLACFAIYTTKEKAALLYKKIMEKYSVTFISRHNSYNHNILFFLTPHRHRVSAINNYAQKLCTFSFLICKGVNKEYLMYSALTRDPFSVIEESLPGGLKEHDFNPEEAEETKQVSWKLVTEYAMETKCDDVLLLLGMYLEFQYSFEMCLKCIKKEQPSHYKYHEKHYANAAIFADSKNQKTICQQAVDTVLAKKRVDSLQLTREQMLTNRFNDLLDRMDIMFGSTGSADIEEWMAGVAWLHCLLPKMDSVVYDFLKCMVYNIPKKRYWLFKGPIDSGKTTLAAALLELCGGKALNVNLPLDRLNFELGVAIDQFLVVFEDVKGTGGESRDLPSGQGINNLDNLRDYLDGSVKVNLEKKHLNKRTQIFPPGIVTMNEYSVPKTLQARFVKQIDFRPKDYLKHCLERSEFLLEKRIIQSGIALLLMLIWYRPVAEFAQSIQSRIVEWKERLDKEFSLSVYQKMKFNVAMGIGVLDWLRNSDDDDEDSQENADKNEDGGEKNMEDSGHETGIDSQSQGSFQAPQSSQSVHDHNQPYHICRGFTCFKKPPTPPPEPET

[2] = biological target: FAD-linked sulfhydryl oxidase ALR (Homo sapiens, UniProt P55789); assay: inhibitors of human ALR sulfhydryl oxidase, dose response, biochemical, H2O2 detection, luminescence, cherry-pick (AID 493248)
Chain of FAD-linked sulfhydryl oxidase ALR (P55789 whole entry): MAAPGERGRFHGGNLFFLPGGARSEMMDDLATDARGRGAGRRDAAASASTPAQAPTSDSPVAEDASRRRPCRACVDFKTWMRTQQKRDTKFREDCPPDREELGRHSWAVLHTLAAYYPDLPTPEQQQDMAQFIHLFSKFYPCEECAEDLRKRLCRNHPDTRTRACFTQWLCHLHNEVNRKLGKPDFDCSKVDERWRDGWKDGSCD

BJ [3] = assay: cytotoxicity toward BJ-TERT fibroblasts, dose response, cell-based, RAS-independent, luminescence (AID 1933); format: functional; details: Homo sapiens
BJ [4] = assay: cytotoxicity toward BJ-TERT-LT-ST fibroblasts, dose response, cell-based, RAS-independent, luminescence (AID 1935); format: functional; details: Homo sapiens;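 further: BJ fibroblasts immortalized with TERT plus LT and ST oncogenes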
[5] = cytotoxicity toward DRD oncogenic fibroblasts, dose response, cell-based, non-viral oncogenic, luminescence (AID 1934); format: functional; details: Homo sapiens
BJ [6] = assay: cells; format: functional, cell-based; details: Homo sapiens
[7] = biological target: T1, Heat shock factor protein 1 (Mus musculus, UniProt P38532); assay: inhibition of MG132-induced HSE-luciferase signal, confirmation, cell-based, NIH3T3, luminescence, dose retest (AID 2382); format: functional;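 further: NIH3T3 fibroblasts with HSF1-driven luciferase reporter stressed by proteasome inhibitor MG132; luminescence from HSF1-driven luciferase expression after 8 hours of MG132 stress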
T1 sequence (P38532 whole entry): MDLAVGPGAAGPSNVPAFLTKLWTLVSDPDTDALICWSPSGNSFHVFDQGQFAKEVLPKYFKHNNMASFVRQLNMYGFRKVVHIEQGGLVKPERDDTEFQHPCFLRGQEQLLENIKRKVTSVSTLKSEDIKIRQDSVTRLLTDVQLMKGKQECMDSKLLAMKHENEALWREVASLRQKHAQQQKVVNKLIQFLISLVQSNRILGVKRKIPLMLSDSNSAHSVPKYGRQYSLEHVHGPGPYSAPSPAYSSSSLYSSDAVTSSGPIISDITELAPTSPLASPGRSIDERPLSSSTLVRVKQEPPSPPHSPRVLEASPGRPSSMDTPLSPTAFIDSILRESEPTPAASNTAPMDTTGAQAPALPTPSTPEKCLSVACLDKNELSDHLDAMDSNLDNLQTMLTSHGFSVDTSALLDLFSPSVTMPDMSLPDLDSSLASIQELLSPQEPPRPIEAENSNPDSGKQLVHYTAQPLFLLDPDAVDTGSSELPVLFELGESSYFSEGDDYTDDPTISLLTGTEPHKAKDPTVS

Cytochrome P450 1A2 = biological target: T2, Cytochrome P450 1A2 (Homo sapiens, UniProt P05177);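 further: PubChem cytochrome P450 panel assay, CYP1A2 panel member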
T2 sequence (P05177 whole entry): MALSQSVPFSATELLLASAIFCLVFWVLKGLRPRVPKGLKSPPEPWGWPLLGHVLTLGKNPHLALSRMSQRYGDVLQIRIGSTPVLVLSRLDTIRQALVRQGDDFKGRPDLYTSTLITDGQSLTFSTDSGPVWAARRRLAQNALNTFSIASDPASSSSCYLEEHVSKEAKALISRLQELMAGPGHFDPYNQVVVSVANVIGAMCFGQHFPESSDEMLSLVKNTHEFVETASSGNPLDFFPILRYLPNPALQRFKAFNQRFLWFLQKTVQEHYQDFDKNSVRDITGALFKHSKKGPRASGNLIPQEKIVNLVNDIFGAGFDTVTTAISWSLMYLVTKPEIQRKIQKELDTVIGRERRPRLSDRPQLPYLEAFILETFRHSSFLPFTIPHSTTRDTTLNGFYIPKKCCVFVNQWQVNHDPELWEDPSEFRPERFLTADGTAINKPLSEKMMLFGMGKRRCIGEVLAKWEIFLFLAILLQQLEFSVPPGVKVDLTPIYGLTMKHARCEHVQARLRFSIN

Streptokinase A = biological target: T3, Streptokinase A (Streptococcus pyogenes serotype M1, UniProt P10520); assay: S. pyogenes streptokinase expression inhibitors, potency, dose response, plasminogen activation absorbance, OD405 (AID 1914); format: functional, Streptococcus pyogenes M1 GAS;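 further: secreted streptokinase activity via plasminogen activation per viability signal from cell pellet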
T3 sequence (P10520 whole entry): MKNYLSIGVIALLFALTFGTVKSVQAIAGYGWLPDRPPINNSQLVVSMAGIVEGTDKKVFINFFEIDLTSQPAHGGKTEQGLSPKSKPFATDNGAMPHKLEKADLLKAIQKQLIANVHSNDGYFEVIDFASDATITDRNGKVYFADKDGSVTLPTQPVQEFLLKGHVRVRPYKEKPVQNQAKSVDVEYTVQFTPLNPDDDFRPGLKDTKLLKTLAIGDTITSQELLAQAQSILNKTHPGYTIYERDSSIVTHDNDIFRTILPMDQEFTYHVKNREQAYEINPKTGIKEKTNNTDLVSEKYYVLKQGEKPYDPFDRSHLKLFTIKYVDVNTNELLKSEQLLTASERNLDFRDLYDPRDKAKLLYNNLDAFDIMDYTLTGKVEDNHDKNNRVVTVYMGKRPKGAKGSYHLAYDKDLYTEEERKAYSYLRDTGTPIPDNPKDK

[8] = inhibitors of SNCA 5'UTR-driven reporter translation, confirmation, H4 neuroglioma cells, luminescence (AID 1988); format: functional, cell-based
[9] = inhibitors of firefly luciferase expression or activity, dose response, H4 neuroglioma cells, luminescence (AID 1990); format: functional, cell-based
[10] = Luminescence Cell-Based Dose Response HTS to Identify Inhibitors of 5'UTR Stem-Loop Driven Prion Protein mRNA Translation in H4 Neuroglioblastoma Cells. [Related pubchem assays: 1827 (Project Summary), 1813 (Primary HTS)]; format: functional
[11] = tested on: Streptococcus sp. 'group A'; assay: growth inhibition of control SK(-) GAS strain, dose response, counter-screen for streptokinase expression inhibitor project, luminescence, kanamycin, BacTiterGlo, confirmation (AID 1900); format: functional, organism-based
Streptococcus = assay: Group A Streptococcus viability loss, dose response, counter-screen for streptokinase expression inhibitor project, luminescence, BacTiterGlo (AID 1915); format: functional, organism-based;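 further: potency for reduction of bacterial viability or growth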
[12] = Luminescence Cell-Based Dose Confirmation HTS to Identify Activators of 5'UTR Stem-Loop Driven Alpha-Synuclein mRNA Translation in H4 Neuroglioblastoma Cells. [Related pubchem assays: 1829 (Project Summary), 1814 (Primary HTS)]; format: functional
H4 = assay: Luminescence Cell-Based Dose Response HTS to Identify Activators of 5'UTR Stem-Loop Driven Prion Protein mRNA Translation in H4 Neuroglioblastoma Cells. [Related pubchem assays: 1829 (Project Summary), 1814 (Primary HTS)]; format: functional; details: Homo sapiens
[13] = Luminescence Cell-Based Dose Response HTS to Identify Activators of Luciferase Translation or Activity in H4 […] Cells. [Related pubchem assays: 1829 (Project Summary), 1814 (Primary HTS)]; format: functional
[14] = inhibitors of intracellular T. cruzi replication, confirmation, NIH3T3 host cells, beta-gal luminescence (AID 2044); format: functional, cell-based;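 further: intracellular parasites grown in NIH/3T3 mouse fibroblasts as host cells; luminescent beta-galactosidase reporter signal from transgenic T. cruzi replicating inside host cells; inhibitors lower the luminescence signal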
[15] = cytotoxicity toward NIH3T3 fibroblasts, dose response, counter-screen, cell-based, ATP luminescence, mouse fibroblasts (AID 2010); format: functional;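 further: cells exposed to compound for about 90 hours before reading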
Cytochrome P450 2C19 = Cytochrome P450 2C19 (Homo sapiens, UniProt P33261); assay: Cytochrome panel assay with activity outcomes. Panel member name: p450-cyp2c19 Compounds with AC50 equal or less than 10 uM are considered active; format: functional; details: read-out: AC50
Chain of Cytochrome P450 2C19 (P33261 whole entry): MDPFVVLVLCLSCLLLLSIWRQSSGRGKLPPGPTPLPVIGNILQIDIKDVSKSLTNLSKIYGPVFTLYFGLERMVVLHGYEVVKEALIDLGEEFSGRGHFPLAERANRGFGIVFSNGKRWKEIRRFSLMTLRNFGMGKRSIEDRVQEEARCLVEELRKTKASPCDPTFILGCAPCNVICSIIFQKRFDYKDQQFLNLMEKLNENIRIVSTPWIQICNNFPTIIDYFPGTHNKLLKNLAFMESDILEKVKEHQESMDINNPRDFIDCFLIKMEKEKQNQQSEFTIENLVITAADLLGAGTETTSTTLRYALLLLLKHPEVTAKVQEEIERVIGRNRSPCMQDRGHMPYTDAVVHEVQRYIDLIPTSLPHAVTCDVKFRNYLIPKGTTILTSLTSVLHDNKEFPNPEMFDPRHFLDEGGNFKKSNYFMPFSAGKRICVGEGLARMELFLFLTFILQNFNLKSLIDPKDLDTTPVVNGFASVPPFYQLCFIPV

Cytochrome P450 2D6 = Cytochrome P450 2D6 (Homo sapiens, UniProt P10635);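 further: CYP2D6 member of a cytochrome P450 panel assay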
Chain of Cytochrome P450 2D6 (P10635 whole entry): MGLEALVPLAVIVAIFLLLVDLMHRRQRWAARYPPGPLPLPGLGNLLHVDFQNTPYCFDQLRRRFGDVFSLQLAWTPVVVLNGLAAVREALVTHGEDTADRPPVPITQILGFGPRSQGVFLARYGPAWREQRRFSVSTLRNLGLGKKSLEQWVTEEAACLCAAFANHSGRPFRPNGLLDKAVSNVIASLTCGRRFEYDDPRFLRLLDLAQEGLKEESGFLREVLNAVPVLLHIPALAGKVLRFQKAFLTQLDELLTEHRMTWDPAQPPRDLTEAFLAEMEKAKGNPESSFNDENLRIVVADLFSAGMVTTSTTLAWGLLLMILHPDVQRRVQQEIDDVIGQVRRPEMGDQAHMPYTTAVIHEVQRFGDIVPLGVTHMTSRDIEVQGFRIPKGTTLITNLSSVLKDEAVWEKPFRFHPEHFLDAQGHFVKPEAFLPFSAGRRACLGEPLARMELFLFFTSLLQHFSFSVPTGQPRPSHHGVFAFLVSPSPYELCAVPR

Cc1cc2nc(SCCOC(=O)Nc3cccc(Cl)c3)nc(C)c2cc1C
CC50 [1]: 32.2 µM (active)

Cc1cc(C)n(CCc2nc(-c3ccco3)cs2)n1
IC50 (Large T antigen): 65.6 µM (active)
AC50 [2]: 4.56 µM (active)

CCOC(=O)c1sc(NC(=O)c2ccccc2OC)nc1C
EC50 (BJ [3]): 22.3 µM (active)
EC50 (BJ [4]): > 150 µM (inconclusive)
EC50 [5]: 14.7 µM (active)
EC50 (BJ [6]): 22.8 µM (active)

Cc1ccc(CN2CC(C(=O)Nc3ccc(C)cn3)CC2=O)cc1 (stereo not given)
EC50 [7]: > 195 µM (not active)

Cc1cc(C(=O)N2CCCC(Nc3ccccc3)C2)c2ccc(F)cc2n1 (stereo not given)
AC50 [2]: 2.24 µM (active)

Cc1ccccc1OCC(=O)NC(=S)Nc1ccc(Br)c(C)n1
AC50 (Cytochrome P450 1A2): 3.16 µM (inconclusive)
EC50 (Streptokinase A): 57.1 µM (active)
EC50 [8]: 14.2 µM (active)
EC50 [9]: 25.1 µM (active)
EC50 [10]: 21 µM (active)
EC50 [11]: > 150 µM (not active)
EC50 (Streptococcus): > 150 µM (not active)

CN(C)c1ccc(-c2nnc(S)n2-c2ccccc2)cc1
AC50 [2]: 64.6 µM (active)

NC1=NC(c2c[nH]nc2-c2cccc(F)c2)n2c(nc3ccccc32)N1 (stereo not given)
EC50 [7]: 27.5 µM (active)

S=C(Sc1ccc(Cl)cc1)Sc1ccc(Cl)cc1
EC50 (BJ [3]): 3.4 µM (inconclusive)
EC50 (BJ [4]): 13.1 µM (inconclusive)
EC50 [5]: 9.25 µM (active)
EC50 (BJ [6]): > 150 µM (inconclusive)

COc1ccc(Nc2cc(C)c3ccc(O)cc3n2)cc1
CC50 [1]: 11.7 µM (active)

Cc1cc(C(=O)CSc2ccccc2)cc(C)c1O
CC50 [1]: 49.6 µM (active)

COc1ccc(NC(S)=Nc2ccc(Oc3ccccc3)cc2)cc1
EC50 [7]: > 195 µM (not active)

CN(C)c1ccc(CNS(=O)(=O)c2ccc3c(c2)NC(=O)CS3)cc1
AC50 [2]: 7.37 µM (active)

CNc1nnc(-c2cccc(N(C)C)c2)s1
AC50 [2]: 0.046 µM (active)

CC(C)C(=O)Nc1ccc2c(c1)nc1n2CCSC1
AC50 [2]: 0.245 µM (active)

COc1cc(SC)ccc1C(=O)N1CCN(c2ccc(O)cc2)CC1
IC50 (Large T antigen): 5.95 µM (active)
AC50 [2]: 0.68 µM (active)

O=Cc1c(N2CCN(c3ccccc3)CC2)nc2ccccn2c1=O
EC50 [12]: > 120 µM (not active)
EC50 (H4): > 120 µM (not active)
EC50 [13]: 17.8 µM (active)
AC50 [2]: 3.72 µM (active)

COc1ccc(/C=N/NC(=O)c2cc(-c3cccn3C)[nH]n2)cc1OC
EC50 [7]: > 195 µM (not active)

CC(=O)N1c2ccc(S(=O)(=O)N3c4ccccc4CC3C)cc2CC1C (stereo not given)
CC50 [1]: 15.1 µM (active)

Cn1cc(CCNC(=O)CC2C(=O)NCCN2Cc2cccc(Oc3ccccc3)c2)cn1 (stereo not given)
EC50 [7]: > 195 µM (not active)

COc1ccc(CCNC(=O)CN2CCN(Cc3ccccc3F)C2=O)cc1OC
EC50 [7]: > 195 µM (not active)

O=C(O)Cc1cc(I)c(Oc2ccc(O)c(I)c2)c(I)c1 [TIRATRICOL]
AC50 (Cytochrome P450 1A2): 12.6 µM (inconclusive)
CC50 [1]: 13 µM (active)

C=CCn1c(SCc2c(C)noc2C)nc2sc3c(c2c1=O)CCC(C)C3 (stereo not given)
EC50 (BJ [3]): 23.8 µM (active)
EC50 (BJ [4]): > 150 µM (inconclusive)
EC50 [5]: 9.03 µM (active)
EC50 (BJ [6]): 4.12 µM (inconclusive)

O=C(O)c1ccccc1C(=O)Nc1ccc(Nc2ccc([N+](=O)[O-])cc2[N+](=O)[O-])cc1
AC50 [2]: 3.88 µM (active)

COc1ccc(NCc2ccc(OC)c(Cn3ccnc3)c2)c(OC)c1
EC50 [14]: 0.588 µM (active)
EC50 [15]: > 60 µM (not active)
AC50 [2]: 1.76 µM (active)

Cc1ccc(-c2nnc(SCC(=O)N/N=C/c3c(C)nn(-c4ccccc4)c3C)n2-c2ccc(C)cc2)cc1
CC50 [1]: 20.5 µM (active)

Cc1ccc(-c2nnc(SCC(=O)N/N=C/c3c(C)nn(-c4ccccc4)c3C)n2-c2ccccc2)cc1
CC50 [1]: 17.2 µM (active)

COc1cc(/C=N\Nc2nc3ccccc3[nH]2)cc(OC)c1OC
AC50 (Cytochrome P450 2C19): 17.8 µM (inconclusive)
AC50 (Cytochrome P450 2D6): 17.8 µM (inconclusive)
AC50 [2]: 0.997 µM (active)

Cc1ccc2nc(O)c(CN(c3cccc(C)c3C)S(=O)(=O)c3ccccc3)cc2c1
EC50 (BJ [3]): 78.2 µM (active)
EC50 (BJ [4]): > 150 µM (not active)
EC50 [5]: 69.9 µM (active)
EC50 (BJ [6]): 46.6 µM (active)

COCCCn1c2nc3ccccc3nc2c2c(=O)n(Cc3ccc(Cl)cc3)cnc21
CC50 [1]: > 50 µM (active)

COc1cccc(CNc2ncc(C(=O)Nc3cc(OC)c(OC)c(OC)c3)c(C)n2)c1
EC50 (BJ [3]): > 150 µM (not active)
EC50 (BJ [4]): 17.9 µM (inconclusive)
EC50 [5]: 19.6 µM (inconclusive)
EC50 (BJ [6]): 46.7 µM (active)

O=C(NN=C1CCCCCCCCCCC1)c1ccccc1F
EC50 [7]: > 195 µM (not active)

COC(=O)C1=C(c2cc3ccccc3o2)C[C@@H]2CC[C@H]1N2C(=O)N1CCCCC1
EC50 (BJ [3]): 4.58 µM (active)
EC50 [8]: 10.5 µM (active)
EC50 [9]: > 120 µM (not active)
EC50 (BJ [4]): 20.9 µM (active)
EC50 [5]: 3.8 µM (inconclusive)
EC50 (BJ [6]): 28.8 µM (active)
EC50 [10]: 12.1 µM (active)
